Laboratory results reported in patent publication US11851710B2, “Methods and materials for identifying metastatic malignant skin lesions and treating skin cancer” (Mayo Foundation for Medical Education and Research, priority 2014, dated 2023).

How the values were obtained:
Type in all cases: cell-based
[1] = test system: β3 integrin; assay: Cell surface β3 integrin expression by flow cytometry after overnight drug incubation; details: 5 μM
Description: (§1) FIGS. 13A-13P illustrate B-raf^V600E inhibits FAK to promote integrin surface expression. FIG. 13A: shRNAs 841, 102 and NC were induced in WM858 cells by IPTG for 5 days (n=4) followed by RNA quantitation. Genes regulated at 0 vs. 0.05 mM IPTG in 841 and 102 but not NC cells are shown. These were: ITGB3 (orange), FAK (blue). Light orange, light blue: up- or down-regulation, respectively, by either 841 or 102 shRNA. FIG. 13B: WM858 cells were transfected with FAK or EGFP cDNA. Regulated genes, FAK over EGFP cells, are shown in orange (up) or blue (down) (n=4). FIG. 13C: Flow cytometry of NC, 841 and 102 cells (un-induced vs. 0.05 mM IPTG for 5 days). FIG. 13D: Integrin cell surface mean intensities; mean.+−.s.d.; n=3; *, p<0.05; p values, Student's t-test; ns, not significant. FIG. 13E: Visualization of focal adhesions by paxillin staining on micropatterned fibronectin disks. FIGS. 13F and 13G: Proliferation speed in the absence (FIG. 13F) or presence (FIG. 13G) of FAK shRNAs; mean.+−.s.d.; n=8; *, p<0.05; p values, Student's t-test; ns, not significant. FIGS. 13H and 13I: Scratch wound healing in IPTG-induced cells; representative experiment (n=3). FIGS. 13J and 13K: Effect of IPTG-induced FAK knock-down on total (t) and phospho (p)-ERK; mean.+−.s.d.; n=4; *, p<0.05; p values, Student's t-test. FIG. 13L: Cell surface β1 and β3 integrin expression (flow cytometry) in B-raf^V600E and wild-type cells after overnight drug incubation; % expression relative to DMSO is shown. FIGS. 13M-13O: FAK/ERK levels in NHM and WM858 after overnight drug incubation (FIG. 13M); quantification of FAK (FIG. 13N) and ERK phosphorylation (FIG. 13O); mean.+−.s.d.; n=4; *, p<0.05; p values, Student's t-test. FIG. 13P: ERK activity in NC, 841 and 102 cells (0.05 mM IPTG for 5 days) after overnight drug incubation.
Isopropyl β-D-1-thiogalactopyranoside (IPTG), 4′,6-Diamidino-2-phenylindole dihydrochloridemitomycin (DAPI), blebbistatin and PF-573228 were purchased from Sigma-Aldrich. Dabrafenib (GSK2118436) was purchased from Selleckchem. FAK antibody (06-543) was from EMD MILLIPORE®. FAK pY397 (44624G) antibody was from Life Technologies. Total ERK (9102) and phospho-ERK (4370) antibodies were from Cell Signaling. Paxillin (610051), ITGB3 (555754), ITGB1 (555443) and mouse IgG1 kappa (555749) antibodies were from BD Transduction Labs. Drugs were used at 5 μM final concentration. EGFP control cDNA was from (Lonza). […]
(§2) PYK2, a FAK-like tyrosine kinase, could not be detected in WM858 cells, irrespective of endogenous FAK levels. WM858 cells carrying control (NC) or FAK-specific shRNAs (841 and 102) were then exposed to IPTG for 5 days, and changes in adhesion gene expression were subsequently quantified by PCR. […]

[2] = test system: ERK; assay: ERK activity (phospho-ERK) by Western blotting after overnight drug incubation; details: WM858 melanoma cells, 5 μM
Description: (§3) FIGS. 13A-13P illustrate B-raf^V600E inhibits FAK to promote integrin surface expression. FIG. 13A: shRNAs 841, 102 and NC were induced in WM858 cells by IPTG for 5 days (n=4) followed by RNA quantitation. Genes regulated at 0 vs. 0.05 mM IPTG in 841 and 102 but not NC cells are shown. These were: ITGB3 (orange), FAK (blue). Light orange, light blue: up- or down-regulation, respectively, by either 841 or 102 shRNA. FIG. 13B: WM858 cells were transfected with FAK or EGFP cDNA. Regulated genes, FAK over EGFP cells, are shown in orange (up) or blue (down) (n=4). FIG. 13C: Flow cytometry of NC, 841 and 102 cells (un-induced vs. 0.05 mM IPTG for 5 days). FIG. 13D: Integrin cell surface mean intensities; mean.+−.s.d.; n=3; *, p<0.05; p values, Student's t-test; ns, not significant. FIG. 13E: Visualization of focal adhesions by paxillin staining on micropatterned fibronectin disks. […] FIGS. 13M-13O: FAK/ERK levels in NHM and WM858 after overnight drug incubation (FIG. 13M); quantification of FAK (FIG. 13N) and ERK phosphorylation (FIG. 13O); mean.+−.s.d.; n=4; *, p<0.05; p values, Student's t-test. […]
as §2

[3] = biological target: T1, FAK (Homo sapiens, UniProt Q05397); assay: FAK Y397 auto-phosphorylation by Western blotting after overnight drug incubation; details: melanoma cells, 5 μM
T1 construct: FAK/ERK levels in NHM and WM858 after overnight drug incubation; endogenous in cells; host or cells: WM858 melanoma cells and NHM
T1 sequence (Q05397 whole entry): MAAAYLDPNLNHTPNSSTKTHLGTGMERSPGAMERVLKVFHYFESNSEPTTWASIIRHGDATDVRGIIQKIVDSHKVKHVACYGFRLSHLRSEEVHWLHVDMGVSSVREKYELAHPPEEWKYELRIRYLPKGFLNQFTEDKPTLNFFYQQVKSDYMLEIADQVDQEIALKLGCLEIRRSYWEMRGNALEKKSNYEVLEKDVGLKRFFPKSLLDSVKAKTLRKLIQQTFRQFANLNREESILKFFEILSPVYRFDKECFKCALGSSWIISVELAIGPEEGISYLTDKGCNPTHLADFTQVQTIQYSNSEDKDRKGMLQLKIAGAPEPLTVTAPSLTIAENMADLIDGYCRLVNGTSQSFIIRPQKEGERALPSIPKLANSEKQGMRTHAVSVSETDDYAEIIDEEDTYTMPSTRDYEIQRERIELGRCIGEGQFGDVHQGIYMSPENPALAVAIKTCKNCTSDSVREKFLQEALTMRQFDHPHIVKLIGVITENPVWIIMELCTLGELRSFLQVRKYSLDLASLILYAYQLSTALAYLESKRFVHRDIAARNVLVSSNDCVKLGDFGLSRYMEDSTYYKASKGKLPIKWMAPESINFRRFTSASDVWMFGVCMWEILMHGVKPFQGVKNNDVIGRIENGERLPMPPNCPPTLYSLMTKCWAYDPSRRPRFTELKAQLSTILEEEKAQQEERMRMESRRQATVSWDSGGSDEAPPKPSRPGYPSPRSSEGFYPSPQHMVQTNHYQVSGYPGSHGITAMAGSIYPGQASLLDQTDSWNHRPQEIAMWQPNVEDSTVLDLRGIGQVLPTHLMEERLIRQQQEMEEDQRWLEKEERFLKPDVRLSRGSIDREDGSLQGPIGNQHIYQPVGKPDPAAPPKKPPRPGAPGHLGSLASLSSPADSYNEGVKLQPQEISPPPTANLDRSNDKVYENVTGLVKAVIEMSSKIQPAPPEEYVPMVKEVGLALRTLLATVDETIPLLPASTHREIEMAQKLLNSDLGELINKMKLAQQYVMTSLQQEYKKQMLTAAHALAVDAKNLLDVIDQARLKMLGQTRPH
Description: as §3, §2

[4] = test system: β1 integrin; assay: Cell surface β1 integrin expression by flow cytometry after overnight drug incubation; details: 5 μM
Description: as §1
Isopropyl β-D-1-thiogalactopyranoside (IPTG), 4′,6-Diamidino-2-phenylindole dihydrochloridemitomycin (DAPI), blebbistatin and PF-573228 were purchased from Sigma-Aldrich. Dabrafenib (GSK2118436) was purchased from Selleckchem. FAK antibody (06-543) was from EMD MILLIPORE®. FAK pY397 (44624G) antibody was from Life Technologies. Total ERK (9102) and phospho-ERK (4370) antibodies were from Cell Signaling. Paxillin (610051), ITGB3 (555754), ITGB1 (555443) and mouse IgG1 kappa (555749) antibodies were from BD Transduction Labs. Drugs were used at 5 μM final concentration. EGFP control cDNA was from (Lonza). FAK cDNA was obtained from A. Huttenlocher, Addgene plasmid number 35039 (Chan et al., J. Biol. Chem., 285:11418-26 (2010)).
PYK2, a FAK-like tyrosine kinase, could not be detected in WM858 cells, irrespective of endogenous FAK levels. WM858 cells carrying control (NC) or FAK-specific shRNAs (841 and 102) were then exposed to IPTG for 5 days, and changes in adhesion gene expression were subsequently quantified by PCR. […] Moreover, Dabrafenib-induced blockage of ERK activity could be partially reversed by a complete FAK knock-down in 102 cells (FIG. 13P).

## CC(C)(C)c1nc(-c2cccc(NS(=O)(=O)c3c(F)cccc3F)c2F)c(-c2ccnc(N)n2)s1 [Dabrafenib]
[1]; NHM
  integrin levels (cell surface β3): not
[1]; most melanoma cells
  integrin levels (cell surface β3): reduced
[2]
  ERK activity: blockage
[3]
  FAK tyrosine (Y) 397 auto-phosphorylation: increased
[4]; NHM
  integrin levels (cell surface β1): not
[4]; most melanoma cells
  integrin levels (cell surface β1): reduced
